Test results taken from US20100144655A1, “ORGANIC COMPOUNDS” (NOVARTIS AG, priority 2008, published 2010).
pEC50: −log10 of the molar value.

What was measured:
[1] = Storage properties (standard tests, not described); type: physicochemical; details: salt forms
[2] = Bioavailability (tests not described); type: in vivo; details: salt forms
HCV replicon = assay: Cell-based HCV replicon assay (Huh-luc/neo-ET, luciferase); set-up: species or system Hepatitis C virus; details: for pEC50: Hepatitis C virus, Huh-7 cell line, luciferase readout
From the text: (§1) The CFI assay is based on quantitative immunodetection of the viral envelope protein, E, as a readout for viral load in target cells. In the CFI assay, the compounds of the invention show activity against dengue virus (e.g. dengue virus serotype 2). […] The HCV replicon contains an inserted firefly luciferase construct in its sequence. The genome of the HCV replicon is maintained as RNA species in a Huh-7 cell line (Krieger et al. Journal of Virology 2001; 75(10):4614-24). Measurement of luciferase activity is used as a surrogate marker for viremia in target cells.
HVC replicon-containing cells, Huh-luc/neo-ET (e.g. as described in Krieger et al., Journal of Virology, 2001; 75(10):4614-24), are maintained in DMEM medium containing 2 mM […], 0.1 mM non-essential amino acid solution, 10% heat-inactivated fetal bovine serum and […] Geneticin®, G418 sulfate solution. The cells are kept between 20 to 80% confluency and are trypsinized with trypsin (0.05%)/EDTA solution. After trypsinization, cells are resuspended in supplemented DMEM phenol red-free medium (DMEM phenol red free supplemented with 2 mM L-glutamine, 0.1 mM non-essential amino acid solution, 10% of heat-inactivated fetal bovine serum and 1 mM sodium pyruvate) and pelleted by centrifugation at 420 g for 5 min. Cell density is calculated and diluted to 1×10^5 cells/mL with phenol red-free medium.
Two sets of plates are prepared, a white opaque 96-well plate for the luciferase reading and a 96-well clear plate for cytotoxicity measurement. Each well is seeded with 10,000 cells/well and incubated overnight at 37° C., 5% CO2. After incubation, the medium is aspirated and phenol red free medium supplemented with various concentrations of compounds is added and the plates further incubated for at 37° C., 5% CO2 for another 48 hours. A positive control may be used, such as, for example, (2R,3R,4R,5R)-2-(4-amino-pyrrolo[2,3-d]pyrimidin-7-yl)-3-ethynyl-5-hydroxymethyl-tetrahydrofuran-3,4-diol.
For determination of luciferase activity, the plates are removed from the incubator to allow them to equilibrate to room temperature for 30 minutes and luciferase activity is measured after the addition of 100 μL of the Britelite® (PerKin Elmer) prepared according to manufacturer's instructions.

[3] = test system: dengue virus serotype 2 strain New Guinea C; assay: Cell-based flavivirus immunodetection (CFI) assay; details: for pEC50: Dengue virus, A549, read-out: EC50 in the CFI assay for dengue virus
From the text: as §1
50% effective concentration (EC50), is the concentration of the test compound that decreases the signal generated by the virus by 50%. It is calculated using nonlinear regression analysis using the variable slope sigmoidal dose-response curve, with commercial software such as Prism or ActivityBase.
A549 cells (e.g. available from ATCC #CCL-185) are trypsinized, counted and diluted to 2×10^5 cells/ml in Hams F-12 media supplemented with 2% fetal bovine serum and 1% penicillin/streptomycin. 2×10^4 cells are dispensed in clear 96-well tissue culture plate per well and placed at 37° C., 5% CO2 overnight. On the next day, the cells are infected with virus (dengue serotype 2, NGC strain, e.g. available from ATCC #VR-1584) at multiplicity of infection (MOI) of 0.3 in the presence of varied concentrations of test compounds for 1 hour at 37° C. and 5% CO2 in the same media. The medium containing virus and the compounds is removed, replaced with fresh medium containing only the test compounds and incubated at 37° C., 5% CO2 for another 48 hours. The cells are washed once with PBS and fixed with cold methanol for 10 min. After washing twice with PBS, the fixed cells are blocked with PBS containing 1% FBS and 0.05% Tween-20 for 1 hour at room temperature. The primary antibody solution (4G2) is then added at a concentration of 1:20 to 1:100 in PBS containing 1% FBS and 0.05% Tween-20 for 3 hours. The cells are then washed three times with PBS followed by one hour incubation with horseradish peroxidase (HRP)-conjugated anti-mouse IgG (Sigma, 1:2000 dilution). After washing three times with PBS, 50 μL of 3,3′,5,5′-tetramethylbenzidine (TMB) substrate solution (Sigma) is added to each well for two minutes. The reaction is stopped by addition 0.5M sulfuric acid. The plates are read at 450 nm absorbance for viral load quantification. After measurement, the cells are washed three times with PBS, followed by incubation with propidium iodide for 5 min. The plate is read in a Tecan Safire plate reader (excitation 537 nm, emission 617 nm) for cell number quantification. Dose response curves are plotted from the mean absorbance versus the log of the concentration of test compounds. The EC50 is calculated by nonlinear regression analysis. A positive control may be used, such as, for example, (2R,3R,4R,5R)-2-(4-amino-pyrrolo[2,3-d]pyrimidin-7-yl)-3-ethynyl-5-hydroxymethyl-tetrahydrofuran-3,4-diol.

TSV01 dengue virus 2 = assay: Mouse model of dengue virus infection (viremia by plaque assay); type: in vivo, AG129 mice
Experimental: The compounds of the invention also show activity in vivo in a mouse model of dengue infection (Schul et al. Journal of Infectious Diseases 2007; 195:665-74). Briefly, AG129 mice (B&K Universal Ltd, Hull, UK) are housed in individually ventilated cages (TechniPlast, Italy) and used between 6 and 10 weeks of age. Mice are injected intraperitoneally with 0.6 ml TSV01 dengue virus 2 suspension. Blood samples are taken by retro orbital puncture under isoflurane anaesthesia. Blood samples are collected in tubes containing sodium citrate to a final concentration of 0.4%, and immediately centrifuged for 3 minutes at 6000 g to obtain plasma. 20 μL of plasma is diluted in 780 μL RPMI1640 medium and snap frozen in liquid nitrogen for plaque assay analysis. Remaining plasma is used for cytokine and NS1 protein level determination. Mice develop dengue viremia rising over several days, peaking on day 3 post-infection.
For testing of antiviral activity, a compound of the invention is dissolved in vehicle fluid, e.g. 10% ethanol, 30% PEG 300 and 60% D5W (5% dextrose in water); or 6N HCl (1.5 eq): 1N
NaOH (pH adjusted to 3.5): 100 mM citrate buffer pH 3.5 (0.9% v/v: 2.5% v/v: 96.6% v/v). Thirty six 6-10 week old AG129 mice are divided into six groups of six mice each. All mice are infected with dengue virus as described above (day 0). Group 1 is dosed by oral gavage of 200 μL/mouse with 13 mg/kg of a compound of the invention twice a day (once early in the morning and once late in the afternoon) for three consecutive days starting on day 0 (first dose just before dengue infection). […] Thus, Groups 1 and 2 are dosed with a compound of the invention at 13 mg/kg and 32 mg/kg respectively, and Groups 3 and 4 are dosed with another compound of the invention at 13 mg/kg and 32 mg/kg respectively. A positive control may be used, such as, e.g., (2R,3R,4R,5R)-2-(4-amino-pyrrolo[2,3-d]pyrimidin-7-yl)-3-ethynyl-5-hydroxymethyl-tetrahydrofuran-3,4-diol, dosed by oral gavage of 200 μL/mouse the same way as the previous groups. A further group is treated with only vehicle fluid.
On day 3 post-infection approximately 100 μL blood samples, anti-coagulated with sodium citrate, are taken from the mice by retro-orbital puncture under isoflurane anaesthesia. Plasma is obtained from each blood sample by centrifugation and snap frozen in liquid nitrogen for plaque assay analysis. The collected plasma samples are analyzed by plaque assay as described in Schul et al. Journal of Infectious Diseases 2007; 195:665-74. Cytokines are also analysed as described in Schul et al. Journal of Infectious Diseases 2007; 195:665-74. NS1 protein levels are analysed using a Platelia® kit (BioRad Laboratories). An anti-viral effect is indicated by a reduction in cytokine levels and/or NS1 protein levels.

[4] = 32 mg/kg bid, oral gavage, 3 days, AG129 mice

Row | Compound | storage properties (in words) [1] | bioavailability (in words) [2] | activity in the HCV replicon assay (in words) (HCV replicon) | pEC50 (HCV replicon) | activity in the CFI assay (in words) [3] | pEC50 [3] | reduction in viremia (TSV01 dengue virus 2; [4]) | activity in vivo in a mouse model of dengue virus infection (in words) (TSV01 dengue virus 2) | reduction in viremia (TSV01 dengue virus 2; 25 mg/kg, mouse model of dengue virus infection)
1 | C#C[C@@]1(O)[C@H](O)[C@@H](CO)O[C@H]1n1ccc2c(N)ncnc21.C#C[C@@]1(O)[C@H](O)[C@@H](CO)O[C@H]1n1ccc2c(N)ncnc21.O=S(=O)(O)c1cccc2c(S(=O)(=O)O)cccc12 [(2R,3R,4R,5R)-2-(4-amino-pyrrolo[2,3-d]pyrimidin-7-yl)-3-ethynyl-5-hydroxymethyl-tetrahydrofuran-3,4-diol napadisylate 2:1 salt] | good storage properties | good bioavailability |  |  |  |  |  |  | 
2 | C#C[C@@]1(O)[C@H](OC(=O)[C@@H](N)C(C)C)[C@@H](CO)O[C@H]1n1ccc2c(N)ncnc21 [Compound 3, (S)-2-Amino-3-methyl-butyric acid (2R,3R,4R,5R)-5-(4-amino-pyrrolo[2,3-d]pyrimidin-7-yl)-4-ethynyl-4-hydroxy-2-hydroxymethyl-tetrahydro-furan-3-yl ester] |  |  | exhibit activity | ~7.18 | exhibit activity | ~6.07 | about 45 fold | exhibit activity | 
3 | C#C[C@@]1(O)[C@H](OC(=O)C(C)C)[C@@H](CO)O[C@H]1n1ccc2c(N)ncnc21 [Compound 4, Isobutyric acid (2R,3R,4R,5R)-5-(4-amino-pyrrolo[2,3-d]pyrimidin-7-yl)-4-ethynyl-4-hydroxy-2-hydroxymethyl-tetrahydro-furan-3-yl ester] |  |  | exhibit activity |  | exhibit activity | ~6.50 | about 113 fold | exhibit activity | 
4 | C#C[C@@]1(O)[C@H](OC(=O)C(C)C)[C@@H](COC(=O)C(C)C)O[C@H]1n1cc(C(N)=O)c2c(N)ncnc21 [Compound 10, Isobutyric acid (2R,3R,4R,5R)-5-(4-amino-5-carbamoyl-pyrrolo[2,3-d]pyrimidin-7-yl)-4-ethynyl-4-hydroxy-2-isobutyryloxymethyl-tetrahydro-furan-3-yl ester] |  |  | exhibit activity | ~7.46 | exhibit activity | ~6.36 |  | exhibit activity | about 30 fold
5 | (2R,3R,4R,5R)-2-(4-amino-pyrrolo[2,3-d]pyrimidin-7-yl)-3-ethynyl-5-hydroxymethyl-tetrahydrofuran-3,4-diol salicylate salt | good storage properties | good bioavailability |  |  |  |  |  |  | 
